Data on 2 compounds can be found in patent US12215112B2, “CD151 inhibitors” (ESFAM BIOTECH PTY LTD, priority 2020, dated 2025).

The test deals with PC3 cells. The test is described as follows: xCELLigence RTCA real-time cell invasion assay (CIM plate, Matrigel) on PC3 prostate cancer cells. As to conditions: Homo sapiens, PC-3, compound 25 uM to 1 uM, cell index monitored for 72 hours, four-parameter dose-response curve, read-out: IC50, Effect of compounds on the invention on prostate cancer cells. Format: cell-based. The essentials:
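PC3 invasion through 5% Matrigel-coated CIM-plate upper chambers was tracked as impedance cell index over 72 h. Compound at 25–1 µM was present in both chambers, with 3×10^4 cells seeded in serum-free RPMI. IC50 came from a four-parameter fit, and IC90 was derived from IC50 and the Hill slope.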

As usually defined, the IC50 is the concentration that gives 50% inhibition.

For `COc1cccc(NC(=O)c2nn3c(-c4cn[nH]c4)cc(N4Cc5cccc(F)c5C4)nc3c2C(C)C)c1` [Compound 125, 5-(4-fluoroisoindolin-2-yl)-3-isopropyl-N-(3-methoxyphenyl)-7-(1H-pyrazol-4-yl)pyrazolo[1,5-a]pyrimidine-2-carboxamide], the half-maximal inhibitory concentration (IC50) turned out to be 7.62 µM.
The same measure for `COc1cccc(NC(=O)c2nn3c(-c4cn[nH]c4)cc(N4Cc5cccc(Cl)c5C4)nc3c2C(C)C)c1` [Compound 126, 5-(4-chloroisoindolin-2-yl)-3-isopropyl-N-(3-methoxyphenyl)-7-(1H-pyrazol-4-yl)pyrazolo[1,5-a]pyrimidine-2-carboxamide]: 1.21 µM.
